Source: patent US4820726A, “Oxaloamino substituted fluorinated resorcinol ethers and anti-allergic and anti-inflammatory use thereof” (Ciba-Geigy Corporation, priority 1985, dated 1989)

Columns and labels:
[1] = tested on: LTD4 -induced contractions of the guinea-pig ileum; experiment: Inhibiting effect on LTD4-induced contractions of the guinea-pig ileum; format: cell-based; details: Cavia porcellus; isolated guinea-pig ileum, Tyrode solution, 38° C.; read-out: IC50, concentration which reduces LTD4 -induced contractions to 50% of the starting value
Description: Thus, they have an antiallergic action based on a pronounced LTD4 -(leucotriene-D4)- and PAF-(PAF-acetoether)-antagonism.
Inhibiting effect on LTD4 -induced contractions of the guinea-pig ileum
Contractions are triggered off by synthetic LTD4 (leucotriene D4, potassium salt) on ileum segments which have been taken from guinea-pigs with a body weight of 300 to 400 g, fixed in an organ bath in Tyrode solution (38° C., gassing with 95% of O2 and 5% of CO2) and loaded with […], and the degree of the contractions is recorded. The degree of inhibition of these contractions to be attributed to the LTD4 -antagonistic action of the test substance is measured. The concentration, designated the IC50, of the test substance which reduces LTD4 -induced contractions to 50% of the starting value is determined.

[2] = target: phospholipase A2 from human leucocytes; experiment: In vitro test for the determination of the inhibition of phospholipase A2 from human leucocytes; format: biochemical; details: enzyme from human leucocytes, 14C-oleic acid labelled E. coli phospholipids, pH 7, 37° C., 1 hour; read-out: IC50, concentration which causes an inhibition of 50% of the control activity of phospholipase A2
Description: In vitro test for the determination of the inhibition of phospholipase A2 from human leucocytes
Neutrophilic polymorphonuclear human leucocytes are isolated, starting from "buffy coats" by multi-stage fractional sedimentation and are deep-frozen.The phospholipase A2 is extracted from the cell suspension by homogenisation with the addition of ice-cold 0.36N H2 SO4 in 2M NaCl, and the supernatant obtained after centrifugation at 10,000 g is dialysed against sodium acetate buffer, pH 4.5.
To determine the enzyme activity, the enzyme (10-30 μg of protein) is incubated in 0.1M tris/HCl buffer, pH 7, with the addition of 1 mM CaCl2 and substrate consisting of phospholipids (2 μM), radioactively labelled biosynthetically with ^14 C-oleic acid, of Escherichia coli, at 37° C. for 1 hour. The reaction is stopped by addition of Dole reagent (isopropanol/heptane/1N H2 SO4 40:10:1, volume/volume) and the ^14 C-oleic acid released selectively by phospholipase A2 is extracted. The substrate also co-extracted is removed completely by filtration of the extract through a silica gel column. The ^14 C-oleic acid in the eluate is determined by radiometry.
To determine an inhibiting effect of test substances on the phospholipase A2, these are added to the incubation batch as solutions in water, dimethylsulfoxide (final concentration in the batch up to 5 vol %) or ethanol (final concentration in the batch up to 2.5 vol %). The action potency of the test substances is expressed by the IC50, i.e. the concentration which causes an inhibition of 50% of the control activity. The IC50 is determined graphically by plotting the percentage inhibition on the ordinate against the logarithm of the concentration (μM) on the abscissa.

| IC50 [1] [µM] | IC50 [2] [µM] | Structure (SMILES) |
| --- | --- | --- |
| 0.087 | > 100 | CCCc1c(OCC(O)COc2cccc(NC(=O)C(=O)O)c2C#N)ccc(C(C)=O)c1O (centres unmarked) [N-{3-[3-(4-acetyl-3-hydroxy-2-propyl-phenoxy)-2-hydroxypropoxy]-2-cyano-phenyl}-oxamic acid, reference compound] |
| 0.01 | 12 | CC(=O)c1ccc(OCCCOc2cc(NC(=O)c3nnn[nH]3)c(C)cc2Br)c(CCC(F)(F)F)c1O [N-{{3-{3-[4-acetyl-3-hydroxy-2-(3,3,3-trifluoropropyl)phenoxy]-propoxy}-4-bromo-6-methyl-phenyl}}-1H-tetrazole-5-carboxamide] |
|  | 13 | CC(=O)c1ccc(OCCCOc2cc(NC(=O)c3nnn[nH]3)c(C)cc2Cl)c(CCC(F)(F)F)c1O [N-{{3-{3-[4-acetyl-3-hydroxy-2-(3,3,3-trifluoropropyl)-phenoxy]-propoxy}-4-chloro-6-methyl-phenyl}}-1H-tetrazole-5-carboxamide] |
